Species on record: Rattus norvegicus
Experiment: DrugMatrix - Regimen: Daily Repeat
Format: toxicity, organism-based, Sprague-Dawley
Parameters: regimen Daily Repeat, gender Male, age 6-8 weeks
Conditions: in vivo, po, route oral GAVAGE, […]; for ABSOLUTE BASOPHIL / BASOPHIL / ABSOLUTE EOSINOPHIL / ABSOLUTE LYMPHOCYTE / ABSOLUTE MONOCYTE / ABSOLUTE SEGMENTED NEUTROPHIL / EOSINOPHIL / ERYTHROCYTE COUNT / HEMATOCRIT / HEMOGLOBIN / LEUKOCYTE COUNT / LYMPHOCYTE / MEAN CORPUSCULAR HEMOGLOBIN / MEAN CORPUSCULAR HEMOGLOBIN CONCENTRATION / MEAN CORPUSCULAR VOLUME / MONOCYTE / NEUTROPHIL / NUCLEATED RED BLOOD CELLS / PLATELET COUNT: tissue Blood; for ALANINE AMINOTRANSFERASE / ALBUMIN / ALKALINE PHOSPHATASE / ASPARTATE AMINOTRANSFERASE / BLOOD UREA NITROGEN / CARBON DIOXIDE / CHLORIDE / CHOLESTEROL / CREATINE PHOSPHOKINASE / CREATININE / GLUCOSE / LACTATE DEHYDROGENASE / LIPASE / PHOSPHORUS / SODIUM / TOTAL BILIRUBIN / TOTAL PROTEIN / URIC ACID: tissue Plasma
[1] = 0 mg/kg, 72 h, dose level Control, time 3 day
[2] = 0 mg/kg, 120 h, dose level Control, time 5 day
[3] = 12 mg/kg, 72 h, dose level Low, time 3 day
[4] = 12 mg/kg, 120 h, dose level Low, time 5 day
[5] = 24 mg/kg, 72 h, dose level M1, time 3 day
[6] = 24 mg/kg, 120 h, dose level M1, time 5 day
[7] = 47 mg/kg, 72 h, dose level High, time 3 day
[8] = 47 mg/kg, 120 h, dose level High, time 5 day

Nc1nc2nc[nH]c2c(=S)[nH]1 [THIOGUANINE]
ABSOLUTE BASOPHIL [1]: 0 CELLS/uL
BASOPHIL [1]: 0%
ABSOLUTE BASOPHIL [2]: 0 CELLS/uL
BASOPHIL [2]: 0%
ABSOLUTE BASOPHIL [3]: 0 CELLS/uL
ABSOLUTE EOSINOPHIL [3]: 0 CELLS/uL
ABSOLUTE LYMPHOCYTE [3]: 1995.33 CELLS/uL
ABSOLUTE MONOCYTE [3]: 24.33 CELLS/uL
ABSOLUTE SEGMENTED NEUTROPHIL [3]: 1147 CELLS/uL
BASOPHIL [3]: 0%
EOSINOPHIL [3]: 0%
ERYTHROCYTE COUNT [3]: 5.75 x10E6/uL
HEMATOCRIT [3]: 36.93%
HEMOGLOBIN [3]: 14.27 G/DL
LEUKOCYTE COUNT [3]: 3.17 x10E3/uL
LYMPHOCYTE [3]: 50.67%
MEAN CORPUSCULAR HEMOGLOBIN [3]: 24.87 pg
MEAN CORPUSCULAR HEMOGLOBIN CONCENTRATION [3]: 38.6 G/DL
MEAN CORPUSCULAR VOLUME [3]: 64.37 fL
MONOCYTE [3]: 0.67%
NEUTROPHIL [3]: 48.67%
NUCLEATED RED BLOOD CELLS [3]: 0 /100WBC
PLATELET COUNT [3]: 1202 x10E3/uL
ALANINE AMINOTRANSFERASE [3]: 56.33 u/L
ALBUMIN [3]: 4.67 G/DL
ALKALINE PHOSPHATASE [3]: 631.67 u/L
ASPARTATE AMINOTRANSFERASE [3]: 116 u/L
BLOOD UREA NITROGEN [3]: 14.67 mg/dL
CARBON DIOXIDE [3]: 23 mmol/L
CHLORIDE [3]: 98.67 MEQ/L
CHOLESTEROL [3]: 58 mg/dL
CREATINE PHOSPHOKINASE [3]: 539.33 u/L
CREATININE [3]: 0.12 mg/dL
GLUCOSE [3]: 318 mg/dL
LACTATE DEHYDROGENASE [3]: 172 u/L
LIPASE [3]: 11.33 u/L
PHOSPHORUS [3]: 9.8 mg/dL
SODIUM [3]: 141.63 MEQ/L
TOTAL BILIRUBIN [3]: 0.17 mg/dL
TOTAL PROTEIN [3]: 6.73 G/DL
URIC ACID [3]: 1.43 mg/dL
ABSOLUTE BASOPHIL [4]: 0 CELLS/uL
ABSOLUTE EOSINOPHIL [4]: 52 CELLS/uL
ABSOLUTE LYMPHOCYTE [4]: 778 CELLS/uL
ABSOLUTE MONOCYTE [4]: 212 CELLS/uL
ABSOLUTE SEGMENTED NEUTROPHIL [4]: 8758 CELLS/uL
BASOPHIL [4]: 0%
EOSINOPHIL [4]: 0.67%
ERYTHROCYTE COUNT [4]: 4.29 x10E6/uL
HEMATOCRIT [4]: 27.5%
HEMOGLOBIN [4]: 11 G/DL
LEUKOCYTE COUNT [4]: 9.8 x10E3/uL
LYMPHOCYTE [4]: 8.33%
MEAN CORPUSCULAR HEMOGLOBIN [4]: 25.97 pg
MEAN CORPUSCULAR HEMOGLOBIN CONCENTRATION [4]: 40.5 G/DL
MEAN CORPUSCULAR VOLUME [4]: 64.23 fL
MONOCYTE [4]: 2%
NEUTROPHIL [4]: 89%
NUCLEATED RED BLOOD CELLS [4]: 0 /100WBC
PLATELET COUNT [4]: 1171.33 x10E3/uL
ALANINE AMINOTRANSFERASE [4]: 335.67 u/L
ALBUMIN [4]: 4.13 G/DL
ALKALINE PHOSPHATASE [4]: 261.67 u/L
ASPARTATE AMINOTRANSFERASE [4]: 551.67 u/L
BLOOD UREA NITROGEN [4]: 16.67 mg/dL
CARBON DIOXIDE [4]: 17.67 mmol/L
CHLORIDE [4]: 101 MEQ/L
CHOLESTEROL [4]: 60.33 mg/dL
CREATINE PHOSPHOKINASE [4]: 1296 u/L
CREATININE [4]: 0.11 mg/dL
GLUCOSE [4]: 204.67 mg/dL
LACTATE DEHYDROGENASE [4]: 625 u/L
LIPASE [4]: 9.67 u/L
PHOSPHORUS [4]: 13.37 mg/dL
SODIUM [4]: 141.53 MEQ/L
TOTAL BILIRUBIN [4]: 0.23 mg/dL
TOTAL PROTEIN [4]: 6.1 G/DL
URIC ACID [4]: 2.83 mg/dL
ABSOLUTE BASOPHIL [5]: 0 CELLS/uL
ABSOLUTE EOSINOPHIL [5]: 0 CELLS/uL
ABSOLUTE MONOCYTE [5]: 0 CELLS/uL
BASOPHIL [5]: 0%
EOSINOPHIL [5]: 0%
MONOCYTE [5]: 0%
ABSOLUTE BASOPHIL [6]: 0 CELLS/uL
ABSOLUTE EOSINOPHIL [6]: 46.33 CELLS/uL
ABSOLUTE LYMPHOCYTE [6]: 7006.33 CELLS/uL
ABSOLUTE MONOCYTE [6]: 30 CELLS/uL
ABSOLUTE SEGMENTED NEUTROPHIL [6]: 550.67 CELLS/uL
BASOPHIL [6]: 0%
EOSINOPHIL [6]: 0.67%
ERYTHROCYTE COUNT [6]: 5.49 x10E6/uL
HEMATOCRIT [6]: 33.33%
HEMOGLOBIN [6]: 13.27 G/DL
LEUKOCYTE COUNT [6]: 7.63 x10E3/uL
LYMPHOCYTE [6]: 91.67%
MEAN CORPUSCULAR HEMOGLOBIN [6]: 24.17 pg
MEAN CORPUSCULAR HEMOGLOBIN CONCENTRATION [6]: 39.8 G/DL
MEAN CORPUSCULAR VOLUME [6]: 60.83 fL
MONOCYTE [6]: 0.33%
NEUTROPHIL [6]: 7.33%
NUCLEATED RED BLOOD CELLS [6]: 0 /100WBC
PLATELET COUNT [6]: 1721.33 x10E3/uL
ALANINE AMINOTRANSFERASE [6]: 38.67 u/L
ALBUMIN [6]: 4.13 G/DL
ALKALINE PHOSPHATASE [6]: 266.67 u/L
ASPARTATE AMINOTRANSFERASE [6]: 89.33 u/L
BLOOD UREA NITROGEN [6]: 11 mg/dL
CARBON DIOXIDE [6]: 25 mmol/L
CHLORIDE [6]: 104.67 MEQ/L
CHOLESTEROL [6]: 66 mg/dL
CREATINE PHOSPHOKINASE [6]: 417.33 u/L
CREATININE [6]: 0.23 mg/dL
GLUCOSE [6]: 127.67 mg/dL
LACTATE DEHYDROGENASE [6]: 349 u/L
LIPASE [6]: 9.67 u/L
PHOSPHORUS [6]: 10.33 mg/dL
SODIUM [6]: 151.33 MEQ/L
TOTAL BILIRUBIN [6]: 0.33 mg/dL
TOTAL PROTEIN [6]: 5.97 G/DL
URIC ACID [6]: 1.17 mg/dL
ABSOLUTE BASOPHIL [7]: 0 CELLS/uL
ABSOLUTE EOSINOPHIL [7]: 53.33 CELLS/uL
ABSOLUTE LYMPHOCYTE [7]: 4257 CELLS/uL
ABSOLUTE MONOCYTE [7]: 26.67 CELLS/uL
ABSOLUTE SEGMENTED NEUTROPHIL [7]: 4229.67 CELLS/uL
BASOPHIL [7]: 0%
EOSINOPHIL [7]: 0.67%
ERYTHROCYTE COUNT [7]: 7.05 x10E6/uL
HEMATOCRIT [7]: 43.87%
HEMOGLOBIN [7]: 17.33 G/DL
LEUKOCYTE COUNT [7]: 8.57 x10E3/uL
LYMPHOCYTE [7]: 50%
MEAN CORPUSCULAR HEMOGLOBIN [7]: 24.57 pg
MEAN CORPUSCULAR HEMOGLOBIN CONCENTRATION [7]: 39.5 G/DL
MEAN CORPUSCULAR VOLUME [7]: 62.23 fL
MONOCYTE [7]: 0.33%
NEUTROPHIL [7]: 49%
NUCLEATED RED BLOOD CELLS [7]: 0 /100WBC
PLATELET COUNT [7]: 1024.33 x10E3/uL
ALANINE AMINOTRANSFERASE [7]: 35.67 u/L
ALBUMIN [7]: 3.03 G/DL
ALKALINE PHOSPHATASE [7]: 125 u/L
ASPARTATE AMINOTRANSFERASE [7]: 152.67 u/L
BLOOD UREA NITROGEN [7]: 21 mg/dL
CARBON DIOXIDE [7]: 16 mmol/L
CHLORIDE [7]: 97 MEQ/L
CHOLESTEROL [7]: 46.67 mg/dL
CREATINE PHOSPHOKINASE [7]: 4333 u/L
CREATININE [7]: 0.17 mg/dL
GLUCOSE [7]: 263.33 mg/dL
LACTATE DEHYDROGENASE [7]: 399 u/L
LIPASE [7]: 23.33 u/L
PHOSPHORUS [7]: 14.77 mg/dL
SODIUM [7]: 139.73 MEQ/L
TOTAL BILIRUBIN [7]: 0.17 mg/dL
TOTAL PROTEIN [7]: 4.33 G/DL
URIC ACID [7]: 3.1 mg/dL
ABSOLUTE BASOPHIL [8]: 0 CELLS/uL
ABSOLUTE EOSINOPHIL [8]: 0 CELLS/uL
ABSOLUTE LYMPHOCYTE [8]: 1200 CELLS/uL
ABSOLUTE MONOCYTE [8]: 72 CELLS/uL
ABSOLUTE SEGMENTED NEUTROPHIL [8]: 1128 CELLS/uL
BASOPHIL [8]: 0%
EOSINOPHIL [8]: 0%
ERYTHROCYTE COUNT [8]: 6.48 x10E6/uL
HEMATOCRIT [8]: 41.1%
HEMOGLOBIN [8]: 15.9 G/DL
LEUKOCYTE COUNT [8]: 2.4 x10E3/uL
LYMPHOCYTE [8]: 50%
MEAN CORPUSCULAR HEMOGLOBIN [8]: 24.5 pg
MEAN CORPUSCULAR HEMOGLOBIN CONCENTRATION [8]: 38.7 G/DL
MEAN CORPUSCULAR VOLUME [8]: 63.5 fL
MONOCYTE [8]: 3%
NEUTROPHIL [8]: 47%
NUCLEATED RED BLOOD CELLS [8]: 0 /100WBC
PLATELET COUNT [8]: 877 x10E3/uL
ALANINE AMINOTRANSFERASE [8]: 127 u/L
ALBUMIN [8]: 3.5 G/DL
ALKALINE PHOSPHATASE [8]: 205 u/L
ASPARTATE AMINOTRANSFERASE [8]: 290 u/L
BLOOD UREA NITROGEN [8]: 35 mg/dL
CARBON DIOXIDE [8]: 25 mmol/L
CHLORIDE [8]: 100 MEQ/L
CHOLESTEROL [8]: 56 mg/dL
CREATINE PHOSPHOKINASE [8]: 284 u/L
CREATININE [8]: 0.1 mg/dL
GLUCOSE [8]: 211 mg/dL
LACTATE DEHYDROGENASE [8]: 156 u/L
LIPASE [8]: 6 u/L
PHOSPHORUS [8]: 9.3 mg/dL
SODIUM [8]: 141.5 MEQ/L
TOTAL BILIRUBIN [8]: 0.2 mg/dL
TOTAL PROTEIN [8]: 6.1 G/DL
URIC ACID [8]: 1.5 mg/dL
